# Tested on: hematopoietic stem and/or progenitor cell engraftment
# Assay: adult zebrafish whole kidney marrow competitive transplantation assay
# Assay type: in vivo
# Settings: for engraftment signal in pilot screen of 10 bioactive compounds: by four weeks post transplant, 10 recipients per treatment; for average G/R / percentage of positive recipients: green marrow cells incubated in vitro for 4 hrs, mixed with red marrow 1:4, 4 wpt, compared with DMSO control; for engraftment: in vitro incubation of green marrow with 10 μM dmPGE2 or 0.5 μM BIO at room temperature for 2-4 hours, by 4 weeks post transplant
# Excerpt: A transparent adult zebrafish, casper, was used as a transplantation recipient. Casper is a double homozygous pigment mutant for the nacre allele (devoid of melanocytes) and the roy allele (devoid of iridophores and reduced melanoyctyes), which allows direct visualization of GFP labeled hematopoietic stem cell homing and engraftment without killing the recipients. Two marrows are used: Tg(β-actin:GFP) and Red GloFish® respectively to compete with each other at varying ratios e.g., 1:4, which can generate robust competition between the two donors. In one embodiment, the red marrow is the competitor, as well as an internal control for the transplant. At different timepoints post-transplant, the recipients are anesthetized and two pictures for each recipient are taken by a fluorescence stereomicroscope with GFP/DsRed filters individually. Images are analyzed by software, such as ImageJ, which can quantify the GFP/DsRed fluorescence intensity. The relative engraftment efficiency of the manipulated green marrow is measured by the ratio of the GFP intensity over the DsRed intensity within the same kidney region after background subtraction (labeled as G/R).
# A double-color labeled competitive transplantation assay was developed, as shown by the flow chart in FIG. 1A. GFP+ and DsRed2+ marrow cells are isolated from Tg(β-actin:GFP) and commercially available Red GloFish®. The two donor populations are mixed at a certain ratio and injected into sublethally irradiated casper recipients retro-orbitally. The DsRed2+ marrow is used as the competitor. Four weeks later, the engraftment is visualized by fluorescence dissection scope. Pictures of GFP and DsRed engraftment are taken for each recipient and analyzed by ImageJ. The kidney region is manually selected and the average fluorescence intensities of both green and red are measured within the same region. The average background intensity is measured in a region outside the fish, and subtracted from the kidney intensity. The calculation of the relative engraftment is shown by the equation in FIG. 1B.
# Adult zebrafish donors are anaesthetized with 0.2% tricaine before blood and kidney collection. Peripheral blood is obtained from adult casper by cardiac puncture with micropipette tips coated with heparin and collected into 0.9×PBS containing 5% FCS. About 3-5 million red blood cells are harvested from one donor. To dissect whole kidney marrow (WKM), a ventral midline incision is made on the donor fish. Whole kidney is dissected out and placed into ice-cold 0.9×PBS containing 5% FCS. Single-cell suspensions are generated by aspiration followed by filtering through a […] nylon mesh filter into a 50 ml conical tube. The flow-though part is diluted with a final volume of 25 ml and centrifuged at 1,500 rpm for 8 minutes. The supernatant is discarded and the pellet cells are resuspended in 1 ml 0.9×PBS containing 5% FCS. The number of viable cells are counted with a hemocytometer. […] Finally, the peripheral blood and kidney marrow cells are centrifuged at 1,500 rpm for 8 minutes, resuspended in 0.9×PBS containing 5% FCS and mixed at a certain ratio and concentration. Casper recipients are anesthetized in tricaine. 4 μl of the cell suspension mixture described above is injected into the circulation retro-orbitally through a Hamilton syringe (26 s gauge, 10 μl volume). […] Transplanted recipients can be anesthetized in tricaine and visualized over time on a Zeiss Discovery V8 stereomicroscope with a 1.2× PlanApo lens and GFP/DsRed filters. Images are captured using AxioVision software and for each recipient, two images are taken with GFP or DsRed filter respectively. The images are all saved in .tif format and analyzed using ImageJ software.
SMILES,score in the competitive transplant model (at 3 months),score in the competitive transplant model (at 4 weeks),engraftment signal in pilot screen of 10 bioactive compounds,average G/R,percentage of positive recipients,engraftment
"O=C1Nc2cc(Br)ccc2C1=C1Nc2ccccc2C1=NO [BIO, 6-bromorindirubin-3′-oxime]",score positive,score positive,enhanced signal above the rest of the chemicals tested,significantly increased,significantly increased,increase engraftment
"CCCCC(C)(C)[C@H](O)/C=C/[C@H]1[C@H](O)CC(=O)[C@@H]1C/C=C\CCCC(=O)O [dmPGE2, 16-,16-dimethyl Prostaglandin E2]",score positive,score positive,enhanced signal above the rest of the chemicals tested,significantly increased,significantly increased,increase engraftment
